Measurements published in PubChem BioAssay AID248 (DTP/NCI, 2004).
Several values for one entry are separate records, joined by “and”; a condition that tells them apart may be missing. Equal values may be shown once. Inconclusive results and toxic doses are left out.

Test system: L1210 leukemia ip in BDF1 mice, survival T/C
Test: NCI In Vivo Anticancer Drug Screen. Data for tumor model L1210 Leukemia (intraperitoneal) in B6D2F1 (BDF1) mice
Conditions: endpoint: mean survival time, higher = longer survival
Summary of the method: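 Mice bearing the transplanted tumor received compound or vehicle. Survival of the treated group was divided by that of the vehicle-treated control group to give the ratio.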

[1] = dose: 100.0 mg/kg/injection, schedule: Q01DX009 (ip), vehicle: Klucel (hydroxypropylcellulose) (HPC)
[2] = dose: 100.0 mg/kg/injection, schedule: Q04DX003 (ip), vehicle: Klucel (hydroxypropylcellulose) (HPC)
[3] = dose: 200.0 mg/kg/injection, schedule: Q01DX009 (ip), vehicle: Klucel (hydroxypropylcellulose) (HPC)
[4] = dose: 200.0 mg/kg/injection, schedule: Q04DX003 (ip), vehicle: Klucel (hydroxypropylcellulose) (HPC)
[5] = dose: 400.0 mg/kg/injection, schedule: Q01DX009 (ip), vehicle: Klucel (hydroxypropylcellulose) (HPC)
[6] = dose: 400.0 mg/kg/injection, schedule: Q04DX003 (ip), vehicle: Klucel (hydroxypropylcellulose) (HPC)
[7] = dose: 400.0 mg/kg/injection, schedule: Q01DX009 (ip), vehicle: saline
[8] = dose: 400.0 mg/kg/injection, schedule: Q01DX001 (ip), vehicle: carboxymethylcellulose (CMC)
[9] = dose: 100.0 mg/kg/injection, schedule: Q01DX009 (ip), vehicle: saline
[10] = dose: 100.0 mg/kg/injection, schedule: Q04DX003 (ip), vehicle: saline
[11] = dose: 200.0 mg/kg/injection, schedule: Q01DX009 (ip), vehicle: saline
[12] = dose: 200.0 mg/kg/injection, schedule: Q04DX003 (ip), vehicle: saline
[13] = dose: 400.0 mg/kg/injection, schedule: Q04DX003 (ip), vehicle: saline
[14] = dose: 100.0 mg/kg/injection, schedule: Q01DX001 (ip), vehicle: saline
[15] = dose: 200.0 mg/kg/injection, schedule: Q01DX001 (ip), vehicle: saline
[16] = dose: 400.0 mg/kg/injection, schedule: Q01DX001 (ip), vehicle: saline
[17] = dose: 50.0 mg/kg/injection, schedule: Q01DX001 (ip), vehicle: saline

With O=[N+]([O-])c1ccc(CS(=O)(=O)Cc2ccc([N+](=O)[O-])cc2)cc1 the T/C (dose: 150.0 mg/kg/injection, schedule: Q01DX001 (ip), vehicle: carboxymethylcellulose (CMC)) was 93 % of control and the T/C (dose: 300.0 mg/kg/injection, schedule: Q01DX001 (ip), vehicle: carboxymethylcellulose (CMC)) was 89 % of control.

CCOC(=O)CNCc1ccc(Cl)c(Cl)c1 was tested, and the T/C (dose: 50.0 mg/kg/injection, schedule: Q04DX003 (ip), vehicle: water) was 106 % of control, the T/C (dose: 100.0 mg/kg/injection, schedule: Q04DX003 (ip), vehicle: water) was 95 % of control and 106 % of control and the T/C (dose: 200.0 mg/kg/injection, schedule: Q04DX003 (ip), vehicle: water) was 87 % of control and 92 % of control.

For C=C(NC(=O)CNC(=O)CN)C(=O)O, the T/C (dose: 100.0 mg/kg/injection, schedule: Q04DX002 (ip), vehicle: saline with Tween-80) was 105 % of control, the T/C (dose: 200.0 mg/kg/injection, schedule: Q04DX002 (ip), vehicle: saline with Tween-80) was 102 % of control and the T/C (dose: 400.0 mg/kg/injection, schedule: Q04DX002 (ip), vehicle: saline with Tween-80) was 102 % of control.

With O=[N+]([O-])c1ccc2cn[nH]c2c1 the T/C [1] was 112 % of control, the T/C [2] was 95 % of control and the T/C [3] was 106 % of control. For the same molecule, the T/C [4] was 92 % of control, the T/C [5] was 107 % of control and the T/C [6] was 96 % of control.

In the case of COc1cc(C=NC(C)(C)CO)cc(OC)c1, the T/C (dose: 100.0 mg/kg/injection, schedule: Q01DX001 (ip), vehicle: alcohol) is reported as 88 % of control, the T/C (dose: 100.0 mg/kg/injection, schedule: Q04DX003 (ip), vehicle: alcohol) is reported as 95 % of control and the T/C (dose: 200.0 mg/kg/injection, schedule: Q01DX001 (ip), vehicle: alcohol) is reported as 96 % of control. The T/C (dose: 200.0 mg/kg/injection, schedule: Q04DX003 (ip), vehicle: alcohol) was 97 % of control, the T/C (dose: 400.0 mg/kg/injection, schedule: Q01DX001 (ip), vehicle: alcohol) was 96 % of control and the T/C (dose: 400.0 mg/kg/injection, schedule: Q04DX003 (ip), vehicle: alcohol) was 100 % of control.

For NC(CSC(c1ccccc1)(c1ccccc1)c1ccc(CO)cc1)C(=O)O (stereo not given), the T/C [7] was 150 % of control and 157 % of control and the T/C (dose: 600.0 mg/kg/injection, schedule: Q01DX009 (ip), vehicle: saline) was 168 % of control.

For COc1ccccc1/C=C(/C)[N+](=O)[O-], the T/C (dose: 100.0 mg/kg/injection, schedule: Q01DX001 (ip), vehicle: carboxymethylcellulose (CMC)) was 97 % of control, the T/C (dose: 200.0 mg/kg/injection, schedule: Q01DX001 (ip), vehicle: carboxymethylcellulose (CMC)) was 97 % of control and the T/C [8] was 100 % of control.

With CCCOCC(O)CO (stereo not given) the T/C [9] was 100 % of control, the T/C [10] was 107 % of control and the T/C [11] was 98 % of control. The T/C [12] was 102 % of control, the T/C [7] was 102 % of control and the T/C [13] was 110 % of control.

In the case of Clc1ccc2noc(-c3ccccc3)c2c1, the T/C [14] is reported as 104 % of control, the T/C [1] is reported as 95 % of control and the T/C [2] is reported as 100 % of control. The T/C [15] was 100 % of control, the T/C [3] was 102 % of control and the T/C [4] was 94 % of control. For the same molecule, the T/C [16] was 98 % of control, the T/C [5] was 95 % of control and the T/C [6] was 90 % of control.

COc1ccc(CN2CCCN(Cc3ccc(OC)cc3OC)C2c2ccc(F)cc2)c(OC)c1 was tested, and the T/C [17] was 94 % of control, the T/C [14] was 89 % of control and the T/C [15] was 94 % of control. The T/C [16] was 100 % of control.

For N#Cc1ccc[nH]1, the T/C (dose: 100.0 mg/kg/injection, schedule: Q01DX001 (sc), vehicle: carboxymethylcellulose (CMC)) was 121 % of control, the T/C (dose: 177.0 mg/kg/injection, schedule: Q01DX001 (ip), vehicle: carboxymethylcellulose (CMC)) was 108 % of control and the T/C (dose: 200.0 mg/kg/injection, schedule: Q01DX001 (sc), vehicle: carboxymethylcellulose (CMC)) was 110 % of control. The T/C (dose: 266.0 mg/kg/injection, schedule: Q01DX001 (ip), vehicle: carboxymethylcellulose (CMC)) was 96 % of control and the T/C [8] was 102 % of control.

For CCSC1OC(C(COC(C)=O)OC(C)=O)C(OC(C)=O)C1NC(C)=S (stereo not given), the T/C [17] was 97 % of control, the T/C [14] was 103 % of control and the T/C [15] was 103 % of control. The T/C [16] was 100 % of control.

In the case of CN(C)c1cc2c(cc1[N+](=O)[O-])-c1ccccc1C2=O, the T/C (dose: 100.0 mg/kg/injection, schedule: Q04DX003 (ip), vehicle: saline with Tween-80) is reported as 100 % of control, the T/C (dose: 200.0 mg/kg/injection, schedule: Q04DX003 (ip), vehicle: saline with Tween-80) is reported as 100 % of control and the T/C (dose: 400.0 mg/kg/injection, schedule: Q04DX003 (ip), vehicle: saline with Tween-80) is reported as 100 % of control.

OC1CCC(O)C2CCCCC12 (stereo not given) was tested, and the T/C [14] was 101 % of control, the T/C [2] was 112 % of control and the T/C [15] was 95 % of control. The T/C [4] was 91 % of control, the T/C [16] was 95 % of control and the T/C [6] was 104 % of control.

For CC(=O)/C=C/c1ccc(O)cc1, the T/C [1] was 98 % of control, the T/C [3] was 96 % of control and the T/C [5] was 100 % of control.

NC(N)=NCCCC(=O)O was tested, and the T/C [9] was 92 % of control, the T/C [10] was 110 % of control and the T/C [11] was 94 % of control. The T/C [12] was 108 % of control, the T/C [7] was 92 % of control and the T/C [13] was 103 % of control.

With C/C(=C/c1c(C)c([N+](=O)[O-])c(C)c(C)c1[N+](=O)[O-])C(=O)O the T/C (dose: 100.0 mg/kg/injection, schedule: Q01DX001 (ip), vehicle: Klucel (hydroxypropylcellulose) (HPC)) was 100 % of control, the T/C [2] was 114 % of control and the T/C (dose: 200.0 mg/kg/injection, schedule: Q01DX001 (ip), vehicle: Klucel (hydroxypropylcellulose) (HPC)) was 91 % of control. For the same molecule, the T/C [4] was 97 % of control, the T/C (dose: 400.0 mg/kg/injection, schedule: Q01DX001 (ip), vehicle: Klucel (hydroxypropylcellulose) (HPC)) was 107 % of control and the T/C [6] was 101 % of control.

In the case of Cc1nc2nc(=S)[nH]c(N)c2nc1C, the T/C (dose: 16.0 mg/kg/injection, schedule: Q01DX Z (ip), vehicle: methylcellulose (MC)) is reported as 86 % of control, the T/C (dose: 31.0 mg/kg/injection, schedule: Q01DX Z (ip), vehicle: methylcellulose (MC)) is reported as 91 % of control and the T/C (dose: 62.0 mg/kg/injection, schedule: Q01DX Z (ip), vehicle: methylcellulose (MC)) is reported as 88 % of control. The T/C (dose: 125.0 mg/kg/injection, schedule: Q01DX Z (ip), vehicle: methylcellulose (MC)) was 95 % of control.

For O=S1(=O)CCCCc2c1ccc1ccccc21, the T/C [14] was 101 % of control, the T/C [15] was 90 % of control and the T/C [16] was 106 % of control.

In the case of CC(O)(c1ccccc1)C(C(=O)O)c1ccccc1 (stereo not given), the T/C [17] is reported as 103 % of control, the T/C [14] is reported as 103 % of control and the T/C [15] is reported as 103 % of control. The T/C [16] was 97 % of control.

For CCOC(=O)NC(=S)NN, the T/C [9] was 105 % of control and the T/C [11] was 110 % of control.

Cc1ccc(S(=O)(=O)N(C)c2cc(Cl)c(I)c(Cl)c2)cc1 was tested, and the T/C [1] was 98 % of control, the T/C [3] was 94 % of control and the T/C [5] was 96 % of control.

In the case of CCOCCOCCOCCOc1ccc2c(c1)OCO2, the T/C (dose: 100.0 mg/kg/injection, schedule: Q04DX002 (ip), vehicle: saline) is reported as 95 % of control, the T/C (dose: 200.0 mg/kg/injection, schedule: Q04DX002 (ip), vehicle: saline) is reported as 88 % of control and the T/C (dose: 400.0 mg/kg/injection, schedule: Q04DX002 (ip), vehicle: saline) is reported as 107 % of control.

In the case of Cc1cc(SCc2ccccc2)cc(C)[o+]1, the T/C [14] is reported as 98 % of control, the T/C [15] is reported as 98 % of control and the T/C [16] is reported as 107 % of control.

With COC(=O)c1cc(C)cc(Oc2ccccc2N)c1C the T/C [14] was 88 % of control, the T/C [15] was 102 % of control and the T/C [16] was 93 % of control.

In the case of Cc1ccc(NC(=O)Oc2ccc(F)cc2)cc1NC(=O)Oc1ccc(F)cc1, the T/C (dose: 25.0 mg/kg/injection, schedule: Q01DX009 (ip), vehicle: other) is reported as 95 % of control, the T/C (dose: 50.0 mg/kg/injection, schedule: Q01DX009 (ip), vehicle: other) is reported as 95 % of control and the T/C (dose: 100.0 mg/kg/injection, schedule: Q01DX009 (ip), vehicle: other) is reported as 94 % of control and 100 % of control.

For N=C(N(O)C(=O)Nc1ccccc1)C(Cl)(Cl)Cl, the T/C (dose: 25.0 mg/kg/injection, schedule: Q01DX009 (ip), vehicle: Klucel (hydroxypropylcellulose) (HPC)) was 98 % of control, the T/C (dose: 50.0 mg/kg/injection, schedule: Q01DX009 (ip), vehicle: Klucel (hydroxypropylcellulose) (HPC)) was 100 % of control and the T/C [1] was 104 % of control and 105 % of control.

With O=[N+]([O-])c1ccc(NCCO)cc1 the T/C [17] was 96 % of control, the T/C [14] was 96 % of control and the T/C [15] was 102 % of control. For the same molecule, the T/C [16] was 96 % of control.

With CC(=O)NC(COC(C)=O)C1OC(C)(C)OC1C(COC(C)=O)OC(C)=O (stereo not given) the T/C [14] was 101 % of control, the T/C [15] was 104 % of control and the T/C [16] was 98 % of control.
